Reference: PubChem BioAssay AID248 (DTP/NCI, 2004)
Several values for one entry are separate records, joined by “and”; a condition that tells them apart may be missing. Equal entries are not always repeated. Toxic doses and inconclusive results are not listed. No stated cut-off is given here; in the data, active means T/C of 150% or more; inactive means T/C below 125%.

Test system: L1210 leukemia ip in BDF1 mice, survival T/C
Assay: NCI In Vivo Anticancer Drug Screen. Data for tumor model L1210 Leukemia (intraperitoneal) in B6D2F1 (BDF1) mice
Settings: endpoint: mean survival time, higher = longer survival
Summary of the method: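 Tumor was transplanted into mice, which were then dosed with test compound or vehicle alone. Survival was recorded for each group, and the treated figure was expressed relative to the control figure.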

[1] = dose: 50.0 mg/kg/injection, schedule: Q04DX003 (ip), vehicle: saline
[2] = dose: 100.0 mg/kg/injection, schedule: Q01DX009 (ip), vehicle: saline
[3] = dose: 100.0 mg/kg/injection, schedule: Q04DX003 (ip), vehicle: saline
[4] = dose: 200.0 mg/kg/injection, schedule: Q01DX009 (ip), vehicle: saline
[5] = dose: 100.0 mg/kg/injection, schedule: Q04DX003 (ip), vehicle: Klucel (hydroxypropylcellulose) (HPC)
[6] = dose: 100.0 mg/kg/injection, schedule: Q01DX009 (ip), vehicle: Klucel (hydroxypropylcellulose) (HPC)
[7] = dose: 200.0 mg/kg/injection, schedule: Q01DX009 (ip), vehicle: Klucel (hydroxypropylcellulose) (HPC)
[8] = dose: 200.0 mg/kg/injection, schedule: Q04DX003 (ip), vehicle: Klucel (hydroxypropylcellulose) (HPC)
[9] = dose: 400.0 mg/kg/injection, schedule: Q01DX009 (ip), vehicle: Klucel (hydroxypropylcellulose) (HPC)

Measured: T/C

CN(C)Cc1c[nH]c2nccnc12
inactive: dose: 25.0 mg/kg/injection, schedule: Q01DX009 (ip), vehicle: saline 102 % of control | dose: 25.0 mg/kg/injection, schedule: Q04DX003 (ip), vehicle: saline 100 % of control | dose: 50.0 mg/kg/injection, schedule: Q01DX009 (ip), vehicle: saline 100 % of control | [1] 105 % of control | [2] 99 % of control and 102 % of control | [3] 100 % of control and 104 % of control | [4] 99 % of control

Oc1c(CN2CCCC2)cc(Nc2cc(/C=C/c3ccc(Cl)cc3)nc(/C=C\c3ccc(Cl)cc3)n2)cc1CN1CCCC1
inactive: dose: 1.0 mg/kg/injection, schedule: Q01DX009 (ip), vehicle: Klucel (hydroxypropylcellulose) (HPC) 110 % of control | dose: 3.0 mg/kg/injection, schedule: Q01DX009 (ip), vehicle: Klucel (hydroxypropylcellulose) (HPC) 98 % of control | dose: 6.0 mg/kg/injection, schedule: Q01DX009 (ip), vehicle: Klucel (hydroxypropylcellulose) (HPC) 101 % of control | dose: 12.0 mg/kg/injection, schedule: Q01DX009 (ip), vehicle: Klucel (hydroxypropylcellulose) (HPC) 91 % of control | dose: 12.0 mg/kg/injection, schedule: Q04DX003 (ip), vehicle: saline 88 % of control | [1] 88 % of control

CC1=CC(C)(C)Nc2ccccc21
inactive: [2] 118 % of control | [3] 106 % of control | [4] 103 % of control | dose: 200.0 mg/kg/injection, schedule: Q04DX003 (ip), vehicle: saline 101 % of control | dose: 400.0 mg/kg/injection, schedule: Q01DX009 (ip), vehicle: saline 116 % of control | dose: 400.0 mg/kg/injection, schedule: Q04DX003 (ip), vehicle: saline 91 % of control

CC(=O)[C@H]1CC[C@H]2[C@@H]3CCC4=CC(=O)[C@H](C)C[C@]4(C)[C@@]3(F)[C@@H](O)C[C@]12C
inactive: dose: 125.0 mg/kg/injection, schedule: Q01DX Z (sc), vehicle: steriod suspending solution 105 % of control | dose: 250.0 mg/kg/injection, schedule: Q01DX Z (sc), vehicle: steriod suspending solution 111 % of control | dose: 375.0 mg/kg/injection, schedule: Q01DX Z (sc), vehicle: steriod suspending solution 105 % of control | dose: 500.0 mg/kg/injection, schedule: Q01DX Z (sc), vehicle: steriod suspending solution 103 % of control

CNCCC(CNC1=NCCN1)(c1cccc2ccccc12)C(C)C (centres undefined)
inactive: [5] 94 % of control

CCOC(=O)/C=C1\CC2c3cc(OC)c(OC)cc3CCN2CC1CC (centres undefined)
inactive: dose: 50.0 mg/kg/injection, schedule: Q01DX009 (ip), vehicle: Klucel (hydroxypropylcellulose) (HPC) 93 % of control | [6] 96 % of control | [7] 96 % of control

CCCCCCCC(=O)CC(C)C
inactive: [6] 109 % of control | [5] 93 % of control | [7] 98 % of control | [8] 96 % of control | [9] 107 % of control | dose: 400.0 mg/kg/injection, schedule: Q04DX003 (ip), vehicle: Klucel (hydroxypropylcellulose) (HPC) 96 % of control

O=C1c2sccc2-c2cccc3cccc1c23
inactive: dose: 50.0 mg/kg/injection, schedule: Q04DX003 (ip), vehicle: Klucel (hydroxypropylcellulose) (HPC) 98 % of control | [6] 98 % of control | [5] 96 % of control | [7] 106 % of control | [8] 102 % of control | [9] 103 % of control

O=C(COc1ccc(Cl)cc1Cl)Nc1cccnc1
inactive: dose: 100.0 mg/kg/injection, schedule: Q01DX001 (ip), vehicle: Klucel (hydroxypropylcellulose) (HPC) 93 % of control | dose: 100.0 mg/kg/injection, schedule: Q04DX003 (ip), vehicle: saline with Tween-80 94 % of control | dose: 200.0 mg/kg/injection, schedule: Q01DX001 (ip), vehicle: Klucel (hydroxypropylcellulose) (HPC) 89 % of control | dose: 200.0 mg/kg/injection, schedule: Q04DX003 (ip), vehicle: saline with Tween-80 94 % of control | dose: 400.0 mg/kg/injection, schedule: Q01DX001 (ip), vehicle: Klucel (hydroxypropylcellulose) (HPC) 96 % of control
